In the first assay the target is PI3Kα (Homo sapiens (Human), UniProt P42336). In words: ADP-Glo Kinase Assay, PI3Kα enzyme activity inhibition.
Sequence of PI3Kα (P42336 whole entry): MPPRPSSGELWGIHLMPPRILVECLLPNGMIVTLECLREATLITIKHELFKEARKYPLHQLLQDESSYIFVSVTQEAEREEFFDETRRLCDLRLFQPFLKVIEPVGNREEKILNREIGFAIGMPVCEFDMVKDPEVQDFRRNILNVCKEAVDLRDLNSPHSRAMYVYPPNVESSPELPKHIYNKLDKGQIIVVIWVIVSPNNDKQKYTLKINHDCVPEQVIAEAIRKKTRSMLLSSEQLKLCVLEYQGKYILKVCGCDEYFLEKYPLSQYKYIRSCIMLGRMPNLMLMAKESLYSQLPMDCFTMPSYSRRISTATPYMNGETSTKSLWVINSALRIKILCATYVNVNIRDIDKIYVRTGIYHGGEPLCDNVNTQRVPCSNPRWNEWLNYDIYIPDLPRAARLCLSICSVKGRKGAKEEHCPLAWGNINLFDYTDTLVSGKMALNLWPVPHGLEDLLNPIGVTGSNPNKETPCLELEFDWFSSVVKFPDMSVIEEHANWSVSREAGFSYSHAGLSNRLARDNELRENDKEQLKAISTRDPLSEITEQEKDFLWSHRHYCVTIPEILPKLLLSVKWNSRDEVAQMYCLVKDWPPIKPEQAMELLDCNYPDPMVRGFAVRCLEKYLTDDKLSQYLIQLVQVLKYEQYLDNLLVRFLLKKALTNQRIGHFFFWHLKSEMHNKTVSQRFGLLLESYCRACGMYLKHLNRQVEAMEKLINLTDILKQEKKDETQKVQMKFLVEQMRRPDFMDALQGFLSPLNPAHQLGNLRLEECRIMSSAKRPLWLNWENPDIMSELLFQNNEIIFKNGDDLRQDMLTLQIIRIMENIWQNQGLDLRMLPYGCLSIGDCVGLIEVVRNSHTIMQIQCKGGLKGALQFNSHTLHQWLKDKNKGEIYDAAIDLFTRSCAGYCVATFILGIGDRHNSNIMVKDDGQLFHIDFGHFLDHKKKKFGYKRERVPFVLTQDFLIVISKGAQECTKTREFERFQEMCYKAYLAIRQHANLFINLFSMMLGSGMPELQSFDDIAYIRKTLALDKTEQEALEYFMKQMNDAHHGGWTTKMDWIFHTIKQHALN
Sequence of PI3Kα (P27986 whole entry partner): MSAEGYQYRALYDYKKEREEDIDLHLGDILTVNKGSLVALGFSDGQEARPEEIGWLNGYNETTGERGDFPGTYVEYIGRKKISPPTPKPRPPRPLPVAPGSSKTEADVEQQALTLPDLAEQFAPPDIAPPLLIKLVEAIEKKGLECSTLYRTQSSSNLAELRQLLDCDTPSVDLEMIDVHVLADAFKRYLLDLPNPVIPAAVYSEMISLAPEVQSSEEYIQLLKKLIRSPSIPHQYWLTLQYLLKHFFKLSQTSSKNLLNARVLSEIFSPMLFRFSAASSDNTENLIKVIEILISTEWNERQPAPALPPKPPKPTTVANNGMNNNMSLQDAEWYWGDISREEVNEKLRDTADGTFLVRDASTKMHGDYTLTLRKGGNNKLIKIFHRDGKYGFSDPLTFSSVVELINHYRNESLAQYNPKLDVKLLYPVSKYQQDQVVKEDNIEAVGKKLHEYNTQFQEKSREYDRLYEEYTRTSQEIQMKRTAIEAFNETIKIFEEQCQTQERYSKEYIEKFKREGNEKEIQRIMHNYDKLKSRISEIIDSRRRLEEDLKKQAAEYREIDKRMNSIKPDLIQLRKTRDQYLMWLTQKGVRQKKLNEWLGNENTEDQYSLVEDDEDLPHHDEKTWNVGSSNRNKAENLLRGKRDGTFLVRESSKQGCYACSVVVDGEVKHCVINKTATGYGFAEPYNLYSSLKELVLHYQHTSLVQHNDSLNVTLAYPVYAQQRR
Conditions: not given
For `CC(C)n1nc2ccc(NC(=O)c3cc(F)cc(C(F)(F)F)c3)c3c2c1C(=O)NC3c1cc(F)ccc1Cl` (centres unmarked) [YL118], the “PI3Kaα IC50” value is listed as “++ (key: +represents IC50<=250 nM; ++ represents 250 nM<IC50<=10 μM; +++ represents IC50>10 μM)”.

The same assay, now with this note: ADP-Glo; ATP 25 μM; PIP2 50 μg/mL; 1 hour at room temperature.
With `O=C1NC(c2cc(F)ccc2Cl)c2c(Nc3nccc4c(C(F)(F)F)cc(F)cc34)cc(F)c3c2N1CC3` (centres unmarked) [YL045], the “PI3Kaα IC50” value was “+++ (+++ represents IC50>10 μM)”.
With `N#Cc1c(N)cccc1-c1cc(NC(=O)c2cc(F)cc(C(F)(F)F)c2)c2c3c1CCN3C(=O)NC2c1cc(Cl)ccc1Cl` (centres unmarked) [YL132], the “PI3Kaα IC50” value is “+++ (+++ represents IC50>10 μM)”.
`Cc1ncc(-c2cc(NC(=O)c3cc(F)cc(C(F)(F)F)c3)c3c4c2CCN4C(=O)NC3c2cc(F)ccc2Cl)[nH]1` (centres unmarked) [YL067]: the “PI3Kaα IC50” value is listed as “+++ (+++ represents IC50>10 μM)”.
Turning to `N#Cc1ccc(-c2cc(NC(=O)c3cc(F)cc(C(F)(F)F)c3)c3c4c2CCN4C(=O)NC3c2cc(F)ccc2Cl)c(N)n1` (centres unmarked) [YL134], the “PI3Kaα IC50” value was “+++ (+++ represents IC50>10 μM)”.
Turning to `O=C(Nc1cc(NC2CC2)c2c3c1C(c1cc(F)ccc1Cl)NC(=O)N3CC2)c1cc(F)cc(C(F)(F)F)c1` (centres unmarked) [YL022], the “PI3Kaα IC50” value is listed as “++ (++ represents 250 nM<IC50<=10 μM)”.
Regarding `Cc1n[nH]c(C(F)(F)F)c1-c1cc(NC(=O)c2cc(F)cc(C(F)(F)F)c2)c2c3c1CCN3C(=O)NC2c1cc(F)ccc1Cl` (centres unmarked) [YL072], the “PI3Kaα IC50” value is recorded as “++ (++ represents 250 nM<IC50<=10 μM)”.
In the case of `N#Cc1n[nH]cc1-c1cc(NC(=O)c2cc(F)cc(C(F)(F)F)c2)c2c3c1CCN3C(=O)NC2c1cc(F)ccc1Cl` (centres unmarked) [YL126], the “PI3Kaα IC50” value is “+++ (+++ represents IC50>10 μM)”.
Turning to `N#Cc1nc(F)ncc1-c1cc(NC(=O)c2cc(F)cc(C(F)(F)F)c2)c2c3c1CCN3C(=O)NC2c1cc(F)ccc1Cl` (centres unmarked) [YL143], the “PI3Kaα IC50” value is on record as “+++ (+++ represents IC50>10 μM)”.
In the case of `O=C(Nc1cc(NC2COC2)c2c3c1C(c1cc(F)ccc1Cl)NC(=O)N3CC2)c1cc(F)cc(C(F)(F)F)c1` (centres unmarked) [YL027], the “PI3Kaα IC50” value is “++ (++ represents 250 nM<IC50<=10 μM)”.
On to `O=C(Nc1cc(NC2CCOCC2)c2c3c1C(c1cc(F)ccc1Cl)NC(=O)N3CC2)c1cc(F)cc(C(F)(F)F)c1` (centres unmarked) [YL028], for which the “PI3Kaα IC50” value is “++ (++ represents 250 nM<IC50<=10 μM)”.
With `O=C(Nc1cc(-c2ccc3ncnn3c2)c2c3c1C(c1cc(F)ccc1Cl)NC(=O)N3CC2)c1cc(F)cc(C(F)(F)F)c1` (centres unmarked) [YL128], the “PI3Kaα IC50” value is recorded as “+++ (+++ represents IC50>10 μM)”.
On to `O=C(Nc1cc(-c2cn[nH]c2C(F)(F)F)c2c3c1C(c1cc(F)ccc1Cl)NC(=O)N3CC2)c1cc(F)cc(C(F)(F)F)c1` (centres unmarked) [YL071], for which the “PI3Kaα IC50” value was “++ (++ represents 250 nM<IC50<=10 μM)”.
Regarding `O=C(Nc1cc(Nc2cnn(C3CCOCC3)c2)c2c3c1C(c1cc(F)ccc1Cl)NC(=O)N3CC2)c1cc(F)cc(C(F)(F)F)c1` (centres unmarked) [YL023], the “PI3Kaα IC50” value is recorded as “++ (++ represents 250 nM<IC50<=10 μM)”.
`N#Cc1c(N)cccc1-c1cc(NC(=O)c2cc(F)cc(C(F)(F)F)c2)c2c3c1CCN3C(=O)NC2c1cc(F)ccc1Cl` (centres unmarked) [YL133]: the “PI3Kaα IC50” value is “+++ (+++ represents IC50>10 μM)”.
On the same count and under the same terms, in the case of `O=C(Nc1cc(-c2c(C(F)(F)F)n[nH]c2-c2ccccc2)c2c3c1C(c1cc(F)ccc1Cl)NC(=O)N3CC2)c1cc(F)cc(C(F)(F)F)c1` (centres unmarked) [YL049] it was “+++ (+++ represents IC50>10 μM)”.
`N#Cc1ccc(-c2cc(NC(=O)c3cc(F)cc(C(F)(F)F)c3)c3c4c2CCN4C(=O)NC3c2cc(Cl)ccc2Cl)c(N)n1` (centres unmarked) [YL130]: the “PI3Kaα IC50” value is given as “+++ (+++ represents IC50>10 μM)”.
For the molecule `O=C(Nc1cc(-c2ccc3ncnn3c2C(F)(F)F)c2c3c1C(c1cc(F)ccc1Cl)NC(=O)N3CC2)c1cc(F)cc(C(F)(F)F)c1` (centres unmarked) [YL145], the “PI3Kaα IC50” value is listed as “+++ (+++ represents IC50>10 μM)”.
On the same count and under the same terms, then `C#Cc1c(-c2cc(NC(=O)c3cc(F)cc(C(F)(F)F)c3)c3c4c2CCN4C(=O)NC3c2cc(F)ccc2Cl)ccc2ncnn12` (centres unmarked) [YL140], with “+++ (+++ represents IC50>10 μM)”.
In the case of `O=C(Nc1cc(Br)c2c3c1C(c1cc(F)ccc1Br)NC(=O)N3CC2)c1cc(F)cc(C(F)(F)F)c1` (centres unmarked) [YL063], the “PI3Kaα IC50” value is “++ (++ represents 250 nM<IC50<=10 μM)”.
For `Nc1cc(-c2cc(NC(=O)c3cc(F)cc(C(F)(F)F)c3)c3c4c2CCN4C(=O)NC3c2cc(F)ccc2Cl)[nH]n1` (centres unmarked) [YL053], the “PI3Kaα IC50” value was “++ (++ represents 250 nM<IC50<=10 μM)”.
`Nc1n[nH]c2ccc(-c3cc(NC(=O)c4cc(F)cc(C(F)(F)F)c4)c4c5c3CCN5C(=O)NC4c3cc(F)ccc3Cl)cc12` (centres unmarked) [YL013]: the “PI3Kaα IC50” value is reported as “++ (++ represents 250 nM<IC50<=10 μM)”.
Still for that read-out and setting: then `Cn1nc(C(F)(F)F)cc1-c1cc(NC(=O)c2cc(F)cc(C(F)(F)F)c2)c2c3c1CCN3C(=O)NC2c1cc(F)ccc1Cl` (centres unmarked) [YL014], with “++ (++ represents 250 nM<IC50<=10 μM)”.
On to `O=C(Nc1cc(-c2ccc3ncnn3c2F)c2c3c1C(c1cc(F)ccc1Cl)NC(=O)N3CC2)c1cc(F)cc(C(F)(F)F)c1` (centres unmarked) [YL129], for which the “PI3Kaα IC50” value is recorded as “+++ (+++ represents IC50>10 μM)”.
Same read-out and setting: then `N#Cc1nc(N)ncc1-c1cc(NC(=O)c2cc(F)cc(C(F)(F)F)c2)c2c3c1CCN3C(=O)NC2c1cc(F)ccc1Cl` (centres unmarked) [YL137], with “+++ (+++ represents IC50>10 μM)”; and `Nc1cc(-c2cc(Nc3nccc4c(C(F)(F)F)cc(F)cc34)c3c4c2CCN4C(=O)NC3c2cc(F)ccc2Cl)n[nH]1` (centres unmarked) [YL044], with “++ (++ represents 250 nM<IC50<=10 μM)”; and `[N-]=[N+]=Nc1cc(NC(=O)c2cc(F)cc(C(F)(F)F)c2)c2c3c1CCN3C(=O)NC2c1cc(F)ccc1Cl` (centres unmarked) [YL011], with “++ (++ represents 250 nM<IC50<=10 μM)”.

Staying with this assay, now noted: PI3Kaα IC50, ADP-Glo; ATP 25 μM; PIP2 50 μg/mL; 1 hour at room temperature.
In turn, `Nc1cc(-c2nc3cc(Cl)ccc3[nH]2)c2c3c1CCN3C(=O)NC2c1cc(F)ccc1Cl` (centres unmarked) [YL099] had an IC50 of 0.25 to 10 µM.
`N#Cc1c(-c2cc(NC(=O)c3cc(F)cc(C(F)(F)F)c3)c3c4c2CCN4C(=O)NC3c2cc(F)ccc2Cl)ccc2ncnn12` (single isomer, unassigned) [YL108-P2] came in with an IC50 greater than 10 µM.
Molecule `N#Cc1c(-c2cc(NC(=O)c3cc(F)cc(C(F)(F)F)c3)c3c4c2CCN4C(=O)NC3c2cc(Cl)ccc2Cl)ccc2ncnn12` (single isomer, unassigned) [YL109-P2] displayed a concentration for half-maximal inhibition (IC50) greater than 10 µM.
`Nc1n[nH]cc1-c1cc(NC(=O)c2cc(F)cc(C(F)(F)F)c2)c2c3c1CCN3C(=O)NC2c1cc(F)ccc1Cl` (centres unmarked) [YL073] yielded an IC50 of 0.25 to 10 µM.
Molecule `O=C(Nc1cc(O)c2c3c1C(c1cc(F)ccc1Cl)NC(=O)N3CC2)c1cc(F)cc(C(F)(F)F)c1` (centres unmarked) [YL076] showed an IC50 of 0.25 to 10 µM.

One may read the IC50 as the point on the concentration scale where inhibition reaches its midpoint. Read a high IC50 as lower potency.

(Values after US20240158408A1, “Nitrogen-Containing Heterocyclic Compound, Pharmaceutical Compositions thereof and Use thereof” (280 Bio, Inc., priority 2022, published 2024).)
